Measurements as given in BindingDB's records for doi:10.1016/j.bmc.2021.116161 (University of Nantes, 2021).

Tests used:
[1] = Inhibition of IL-15 in mouse 32Dbeta cells assessed as decrease in cell growth in presence of RLI incubated for 30 mins followed by RLI addition and measured after 2.5 days by alamar blue assay
[2] = Inhibition of […] in mouse 32Dbeta cells assessed as decrease in cell growth in presence of IL2 incubated for 30 mins followed by IL2 addition and measured after 2.5 days by alamar blue assay

| Compound | IC50 [1] | IC50 [2] |
| --- | --- | --- |
| Cn1c(Cc2nn(C)c(=O)c3ccccc23)nnc1SCC(=O)Nc1ccc(Cl)cc1Cl | 22.5 µM | 21.1 µM |
| Cn1c(Cc2nn(C)c(=O)c3ccccc23)nnc1SCCCCCCCC(=O)Nc1ccc(Cl)cc1Cl | 2.2 µM | 3.9 µM |
| CCOC(CCn1c(Cc2nn(C)c(=O)c3ccccc23)nnc1SCC(=O)Nc1ccc(Cl)cc1Cl)OCC | > 30 µM | > 30 µM |
| Cn1nc(Cc2nnc(SCC(=O)Nc3ccc(Cl)cc3Cl)n2CCC=O)c2ccccc2c1=O | 6 µM | 6.4 µM |
| Cn1nc(Cc2nnc(SCC(=O)Nc3ccc(Cl)cc3Cl)n2CCCO)c2ccccc2c1=O | > 30 µM | > 30 µM |
| Cn1nc(Cc2nnc(SCC(=O)Nc3ccc(Cl)cc3Cl)n2CCC(=O)O)c2ccccc2c1=O | > 30 µM | > 30 µM |
| Cn1c(Cc2nn(CCC3OCCO3)c(=O)c3ccccc23)nnc1SCC(=O)Nc1ccc(Cl)cc1Cl | > 30 µM | > 30 µM |
| Cn1c(Cc2nn(CCC=O)c(=O)c3ccccc23)nnc1SCC(=O)Nc1ccc(Cl)cc1Cl | 30 µM | 30 µM |
| Cn1c(Cc2nn(CCCO)c(=O)c3ccccc23)nnc1SCC(=O)Nc1ccc(Cl)cc1Cl | > 30 µM | > 30 µM |
| Cn1c(Cc2nn(CCC(=O)O)c(=O)c3ccccc23)nnc1SCC(=O)Nc1ccc(Cl)cc1Cl | > 30 µM | > 30 µM |
| CN(C)CCCn1nc(Cc2nnc(SCC(=O)Nc3ccc(Cl)cc3Cl)n2C)c2ccccc2c1=O | 18.8 µM | 16.7 µM |
| CCOC(CCn1c(Cc2nn(C)c(=O)c3ccccc23)nnc1SCCCCCCCC(=O)Nc1ccc(Cl)cc1Cl)OCC | 12.1 µM | 16.4 µM |
| Cn1nc(Cc2nnc(SCCCCCCCC(=O)Nc3ccc(Cl)cc3Cl)n2CCC=O)c2ccccc2c1=O | 2.5 µM | 5.5 µM |
| Cn1nc(Cc2nnc(SCCCCCCCC(=O)Nc3ccc(Cl)cc3Cl)[nH]2)c2ccccc2c1=O | 1.1 µM | 3.5 µM |
| Cn1nc(Cc2nnc(SCCCCCCCC(=O)Nc3ccc(Cl)cc3Cl)n2CCCO[Si](C)(C)C(C)(C)C)c2ccccc2c1=O | > 30 µM | > 30 µM |
| Cn1nc(Cc2nnc(SCCCCCCCC(=O)Nc3ccc(Cl)cc3Cl)n2CCCO)c2ccccc2c1=O | > 30 µM | > 30 µM |
| Cn1nc(Cc2nnc(SCCCCCCCC(=O)Nc3ccc(Cl)cc3Cl)n2CCC(=O)O)c2ccccc2c1=O | > 30 µM | > 30 µM |
| CN(C)CCCn1c(Cc2nn(C)c(=O)c3ccccc23)nnc1SCCCCCCCC(=O)Nc1ccc(Cl)cc1Cl | 3.7 µM | 5.5 µM |
| Cn1c(Cc2nn(CCCO[Si](C)(C)C(C)(C)C)c(=O)c3ccccc23)nnc1SCCCCCCCC(=O)Nc1ccc(Cl)cc1Cl | > 30 µM | > 30 µM |
| Cn1c(Cc2nn(CCC=O)c(=O)c3ccccc23)nnc1SCCCCCCCC(=O)Nc1ccc(Cl)cc1Cl | 8.9 µM | 11.7 µM |
| Cn1c(Cc2nn(CCCO)c(=O)c3ccccc23)nnc1SCCCCCCCC(=O)Nc1ccc(Cl)cc1Cl | > 30 µM | > 30 µM |
| Cn1c(Cc2nn(CCC(=O)O)c(=O)c3ccccc23)nnc1SCCCCCCCC(=O)Nc1ccc(Cl)cc1Cl | > 30 µM | > 30 µM |
| CN(C)CCCn1nc(Cc2nnc(SCCCCCCCC(=O)Nc3ccc(Cl)cc3Cl)n2C)c2ccccc2c1=O | 2.3 µM | 3.2 µM |
| Cn1c(Cc2n[nH]c(=O)c3ccccc23)nnc1SCCCCCCCC(=O)Nc1ccc(Cl)cc1Cl | > 30 µM | > 30 µM |
| Cn1c(Cc2nn(C)c(=O)c3ccccc23)nnc1SCCCCCCCC(=O)Nc1ccc(C(=O)c2ccccc2)cc1 | 6.7 µM | 20.6 µM |
